{"source": "patent US20150133456A1", "about": "“FLUOROERGOLINE DERIVATIVES AND USES THEREOF” (MAP PHARMACEUTICALS, INC., priority 2012, published 2015)", "key": {"human 5-HT2B receptor [1]": {"biological_target": "T1, human 5-HT2B receptor (Homo sapiens, UniProt P41595)", "T1 construct": "host or cells: CHO-K1 coexpressing mitochondrial apoaequorin", "T1 sequence (P41595 whole entry)": "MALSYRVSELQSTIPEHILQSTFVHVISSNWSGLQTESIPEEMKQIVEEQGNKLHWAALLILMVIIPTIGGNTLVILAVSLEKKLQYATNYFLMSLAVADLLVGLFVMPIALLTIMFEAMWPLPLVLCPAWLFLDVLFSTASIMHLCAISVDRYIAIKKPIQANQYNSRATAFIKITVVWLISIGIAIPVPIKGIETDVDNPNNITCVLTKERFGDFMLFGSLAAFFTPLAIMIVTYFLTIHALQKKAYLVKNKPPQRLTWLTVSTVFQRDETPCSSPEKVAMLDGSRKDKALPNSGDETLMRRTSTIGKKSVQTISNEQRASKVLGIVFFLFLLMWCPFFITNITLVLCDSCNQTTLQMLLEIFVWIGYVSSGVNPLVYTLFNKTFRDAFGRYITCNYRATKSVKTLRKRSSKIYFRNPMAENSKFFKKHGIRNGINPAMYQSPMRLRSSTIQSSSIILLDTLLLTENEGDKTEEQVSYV", "assay": "Aequorin assay, agonist activity at 5-HT2B", "type": "cell-based", "details": "0.01 nM to 20,000 nM; versus Emax of α-methyl-5-HT", "description": "Percentage activation values were determined for 2-CF3 dihydroergotamine at the 5-HT2B receptor."}, "[2]": {"assay": "Metabolism in human liver microsomes", "details": "1 μM, 0.2 mg protein/mL", "description": "Metabolism of dihydroergotamine (DHE) and 2-CF3 DHE was evaluated in human liver microsomes. DHE mesylate and 2-CF3 DHE mesylate (1 μM each) were incubated separately with human liver microsomes (0.2 mg protein/mL) in triplicate at 37° C. in 0.2 mL (final volume) incubation buffer (50 mM potassium phosphate buffer, pH 7.4, 3 mM MgCl2 and 1 mM EDTA, pH7.4) with or without cofactor, NADPH-generating system. The NADPH-generating system consisted of 1 mM NADP, pH 7.4, 5 mM glucose-6-phosphate, pH 7.4 and 1 unit/mL glucose-6-phosphate dehydrogenase. DHE was added to the incubation mixtures in water. 2-CF3-DHE was added to incubation mixtures in 50:50 (v:v) acetonitrile:water. A low level of acetonitrile in the incubation was maintained to avoid any solvent effects on enzyme activity (typically at 0.5% or lower). Reactions were initiated by the addition of the NADPH-generating system and were terminated at 0, 15, 30 and 60 minutes after initiation by the addition of […], of stop reagent (acetonitrile) containing two internal standards (4′-hydroxydiclofenac-d4 and 1′-hydroxymidazolam-d4, 200 and 50 ng/mL in the final stopped incubation, respectively). The samples were then centrifuged and the supernatant fractions were analyzed by LC/MS/MS to quantify the formation of 8′-OH-DHE (metabolite) in the DHE samples and DHE and 8′-OH-DHE in the 2-CF3-DHE samples."}, "D2 receptor": {"biological_target": "T2, D2 receptor (Homo sapiens, UniProt P14416)", "T2 construct": "expressed in transfected cells", "T2 sequence (P14416 whole entry)": "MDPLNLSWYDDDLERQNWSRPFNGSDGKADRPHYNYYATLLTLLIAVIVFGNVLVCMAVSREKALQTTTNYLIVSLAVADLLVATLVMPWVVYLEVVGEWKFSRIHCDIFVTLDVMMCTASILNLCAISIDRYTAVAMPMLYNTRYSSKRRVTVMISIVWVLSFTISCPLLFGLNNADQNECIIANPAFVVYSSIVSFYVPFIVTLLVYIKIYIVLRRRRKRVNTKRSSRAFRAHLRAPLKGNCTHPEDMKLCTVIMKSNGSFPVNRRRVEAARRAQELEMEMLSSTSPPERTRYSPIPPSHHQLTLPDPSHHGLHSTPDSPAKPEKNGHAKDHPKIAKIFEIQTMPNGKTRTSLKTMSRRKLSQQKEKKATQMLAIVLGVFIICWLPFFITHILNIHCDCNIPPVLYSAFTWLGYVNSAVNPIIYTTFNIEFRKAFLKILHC", "assay": "Agonist activity at the D2 receptor", "type": "cell-based", "details": "read-out: EC50, D2 receptor agonism", "description": "The assay was performed analogously to the assay described in Example 4."}, "CCK2": {"biological_target": "T3, CCK2 (Homo sapiens, UniProt P32239)", "T3 construct": "expressed in transfected cells; host or cells: CHO-AEQ (CHO-K1 with mitochondrial apoaequorin)", "T3 sequence (P32239 whole entry)": "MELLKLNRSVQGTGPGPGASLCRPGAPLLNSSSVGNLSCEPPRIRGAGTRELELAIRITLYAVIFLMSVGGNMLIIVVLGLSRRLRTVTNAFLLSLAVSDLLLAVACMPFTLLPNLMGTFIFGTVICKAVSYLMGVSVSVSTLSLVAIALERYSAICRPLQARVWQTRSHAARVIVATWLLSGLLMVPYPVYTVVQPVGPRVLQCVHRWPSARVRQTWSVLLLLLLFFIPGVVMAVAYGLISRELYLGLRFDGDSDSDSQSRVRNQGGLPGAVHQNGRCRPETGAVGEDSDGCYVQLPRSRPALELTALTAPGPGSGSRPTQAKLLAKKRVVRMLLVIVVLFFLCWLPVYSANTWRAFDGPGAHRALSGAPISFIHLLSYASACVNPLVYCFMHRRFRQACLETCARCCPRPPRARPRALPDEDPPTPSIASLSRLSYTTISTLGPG", "assay": "Cholecystokinin receptor Aequorin assay", "type": "cell-based", "details": "antagonism", "description": "CHO-K1 cells coexpressing mitochondrial apoaequorin and the recombinant human receptor of interest were grown to mid-log phase in culture media without antibiotics and then detached with PBS-EDTA, centrifuged and resuspended in assay buffer (DMEM/HAM's F12 with HEPES, without phenol red+0.1% BSA, protease free) at a concentration of 1×10^6 cell/mL. Cells were incubated at room temperature for at least 4 hours with coelenterazine h. Reference agonist/antagonist was tested to evaluate the performance of the assay and to determine EC50/IC50.\n50 μL of the cell suspension was mixed with 50 μL of test or reference agonist in a 96-well plate. […] For antagonist testing, 100 μL of the reference agonist at its EC80 was injected on the mix of cells and test compound, following an incubation of 15 minutes after the first injection. The resulting emission of light was r recorded using Hamamatsu Functional Drug Screening System 6000 (FDSS 6000) luminometer. To standardize the emission of recorded light (and determine of the “100% signal”) across plates and across different experiments, some wells contained 100 μM digitonin or a saturating concentration of ATP (20 μM)."}, "human 5-HT1D receptor": {"biological_target": "human 5-HT1D receptor (Homo sapiens, UniProt P28221)", "sequence (P28221 whole entry)": "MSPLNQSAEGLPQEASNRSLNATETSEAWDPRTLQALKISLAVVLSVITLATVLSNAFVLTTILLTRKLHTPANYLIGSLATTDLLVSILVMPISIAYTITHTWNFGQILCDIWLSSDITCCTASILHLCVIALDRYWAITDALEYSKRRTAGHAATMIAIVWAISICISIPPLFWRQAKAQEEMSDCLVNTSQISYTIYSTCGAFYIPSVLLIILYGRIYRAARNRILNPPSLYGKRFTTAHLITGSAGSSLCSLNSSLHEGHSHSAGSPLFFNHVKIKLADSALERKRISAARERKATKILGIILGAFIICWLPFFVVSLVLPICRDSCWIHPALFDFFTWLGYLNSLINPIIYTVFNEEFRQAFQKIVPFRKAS", "assay": "GTPγS agonist assay, 5-HT1D", "type": "biochemical", "quoted_text": "The mixture was shaken for 2 minutes prior to a 60 min incubation. It was then centrifuged for 10 minutes and counted for 1 minute with a Perkin Elmer TopCount reader. The resulting emission of light was recorded using a luminometer. Agonist percentage activation determinations were obtained by comparing with the Emax of the reference agonist α-methyl-5-HT."}, "human 5-HT2B receptor [3]": {"biological_target": "T1, human 5-HT2B receptor", "assay": "Aequorin assay, antagonist activity at 5-HT2B", "type": "cell-based", "description": "Percentage inhibition values were determined for 2-CF3 dihydroergotamine on the 5-HT2B receptor."}, "Adenosine A2a": {"biological_target": "T4, Adenosine A2a (Homo sapiens, UniProt P29274)", "T4 construct": "expressed in transfected cells; host or cells: HEK293", "T4 sequence (P29274 whole entry)": "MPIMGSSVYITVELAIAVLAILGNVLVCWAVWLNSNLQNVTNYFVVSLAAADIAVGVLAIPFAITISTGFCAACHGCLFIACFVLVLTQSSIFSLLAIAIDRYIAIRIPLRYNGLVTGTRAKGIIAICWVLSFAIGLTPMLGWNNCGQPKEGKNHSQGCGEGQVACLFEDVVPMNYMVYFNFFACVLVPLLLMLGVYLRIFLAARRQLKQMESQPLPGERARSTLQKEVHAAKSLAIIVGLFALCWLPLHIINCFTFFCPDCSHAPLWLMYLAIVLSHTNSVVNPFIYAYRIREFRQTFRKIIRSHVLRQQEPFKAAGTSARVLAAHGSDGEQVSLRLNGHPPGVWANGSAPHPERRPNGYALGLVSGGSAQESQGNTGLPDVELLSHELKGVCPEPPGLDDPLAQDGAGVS", "assay": "Adenosine A2a cAMP HTRF assay", "type": "cell-based", "details": "HEK293, cAMP", "description": "Cells expressing the human recombinant receptor of interest were grown in media without antibiotic and detached by gentle flushing with PBS-EDTA (5 mM EDTA), recovered by centrifugation and resuspended in assay buffer (KRH: 5 mM KCl, 1.25 mM MgSO4, 124 mM NaCl, 25 mM HEPES, 13.3 mM glucose, 1.25 mM KH2PO4, 1.45 mM CaCl2, 0.5 g/L BSA). Dose response curves were performed in parallel with the reference compounds. For agonist tests (96-well plates), 12 μL of cells was mixed with 12 μL of the test compound at increasing concentrations and then incubated for 30 minutes at room temperature. Lysis buffer was added and after a 1 hour incubation, cAMP concentrations was determined according to the manufacturer specification with the HTRF kit. For antagonist tests (96-well plates), 12 μL of cells was mixed with 6 μL of the test compound at increasing concentrations and then incubated for 10 minutes. 6 μL of the reference agonist was added at a final concentration corresponding to the historical EC80. The plates were then incubated for 30 minutes at room temperature. Lysis buffer was added and after a 1 hour incubation, cAMP concentrations were determined according to the manufacturer specification, with the HTRF kit."}}, "note": "“Also recorded” adds a separate entry of the source.", "data": [{"molecule": "CN1C[C@H](C(=O)N[C@]2(C)O[C@@]3(O)[C@@H]4CCCN4C(=O)[C@H](Cc4ccccc4)N3C2=O)CC2c3cccc4[nH]c(C(F)(F)F)c(c34)CC21", "note": "(stereo partly shown) [2-CF3-dihydroergotamine]", "values": [{"measurement": "agonist activity at the 5-HT2B receptor", "setting": "human 5-HT2B receptor [1]", "value": "no agonist activity; also recorded: little agonist activity"}, {"measurement": "metabolism by human liver microsomes in the presence of NADPH", "setting": "[2]; 0 to 60 minutes", "value": "extensively metabolized"}, {"measurement": "intrinsic clearance, slower than that of DHE", "setting": "[2]; with NADPH", "value": "about 85%"}, {"measurement": "EC50", "setting": "D2 receptor", "value": 218, "unit": "nM"}, {"measurement": "IC50", "setting": "CCK2", "value": "> 10000", "unit": "nM"}, {"measurement": "EC50", "setting": "human 5-HT1D receptor", "value": 13.6, "unit": "nM"}, {"measurement": "antagonism of the 5-HT2B receptor", "setting": "human 5-HT2B receptor [3]; FIG. 2", "value": "potent antagonism"}, {"measurement": "IC50", "setting": "human 5-HT2B receptor [3]; reference agonist at its EC80, read-out: IC50, 5-HT2B antagonism", "value": 204, "unit": "nM"}, {"measurement": "Emax", "setting": "Adenosine A2a", "value": 25, "unit": "%"}, {"measurement": "EC50", "setting": "Adenosine A2a; read-out: EC50, Adenosine A2a agonism", "value": 5.27, "unit": "nM"}]}]}
